Source: US10781224B2, “Bis(oxymethyl)phosphinic acid and biogenic metal salts thereof as regulators of plant growth and development” (priority 2016, dated 2020)

Experiments:
Assay type in all cases: in vivo
[1] = tested on: corn (Krasnodar 385 MV variety); assay: Corn seed treatment with BHMPA salts: germination energy and germination rate
Method in brief: (§1)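 Corn, winter wheat and rice seeds (50 per dish, on filter paper) were soaked for 1 h in BHMPA or its metal salts at 1·10^−6-1·10^−12%, with water as control. Germination energy was read on day 4 and germination rate on day 8 for wheat and day 7 for rice and corn, following GOST 12038-84, as the mean of four replicates.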

rice (Diamant variety) = assay: Rice seed treatment with BHMPA salts: germination energy and germination rate
Method in brief: as §1

[2] = tested on: corn (Krasnodar 385 MV variety); assay: Corn seed treatment with BHMPA salts: germinating power
Method in brief: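 Seeds (50 per Petri dish on two layers of filter paper) soaked 1 h in BHMPA or its Ca, Mg, Na, Co, Mn, Cu or Zn salts at 1·10^−6-1·10^−12%, with water controls. Germination energy read on day 4, germination on day 8 (wheat) or day 7 (rice, corn), as % means of four replicates. Germinating power taken as root and sprout length plus wet and dry mass per 100 seedlings.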

[3] = comparative study vs Melaphen, 1·10^−10% solution
[4] = rice seed treatment, solution 1 · 10^−11%
[5] = seed treatment, concentration 1 · 10^−6%
[6] = seed treatment, concentration 1 · 10^−7%
[7] = seed treatment, concentration 1 · 10^−8%
[8] = seed treatment, concentration 1 · 10^−9%
[9] = seed treatment, concentration 1 · 10^−10%
[10] = seed treatment, concentration 1 · 10^−11%
[11] = seed treatment, concentration 1 · 10^−12%
[12] = corn seeds, solution concentration 1 · 10^−6%, sodium salt of BHMPA
[13] = corn seeds, solution concentration 1 · 10^−7%, sodium salt of BHMPA
[14] = corn seeds, solution concentration 1 · 10^−8%, sodium salt of BHMPA
[15] = corn seeds, solution concentration 1 · 10^−9%, sodium salt of BHMPA
[16] = corn seeds, solution concentration 1 · 10^−10%, sodium salt of BHMPA
[17] = corn seeds, solution concentration 1 · 10^−11%, sodium salt of BHMPA
[18] = corn seeds, solution concentration 1 · 10^−12%, sodium salt of BHMPA

In the case of `O=P([O-])(CO)CO.[Na+]` [Na-salt, Sodium BHMPA Salt], the Germination energy ([1]; 1·10^−6% solution) is reported as 75.7%, the Germination rate ([1]; 1·10^−6% solution) is reported as 78.3% and the Germination energy ([1]; 1·10^−7% solution) is reported as 78.0%. It also gave a Germination rate ([1]; 1·10^−7% solution) of 81.8%, a Germination energy ([1]; 1·10^−8% solution) of 84.8% and a Germination rate ([1]; 1·10^−8% solution) of 87.5%. For the same compound, the Germination energy ([1]; 1·10^−9% solution) was 87.7%, the Germination rate ([1]; 1·10^−9% solution) was 91.7% and the Germination energy ([1]; 1·10^−10% solution) was 89.7%. It also gave a Germination rate ([1]; 1·10^−10% solution) of 93.0%, a Germination energy ([1]; 1·10^−11% solution) of 86.8% and a Germination rate ([1]; 1·10^−11% solution) of 89.5%. It also gave a Germination energy ([1]; 1·10^−12% solution) of 82.0%, a Germination rate ([1]; 1·10^−12% solution) of 85.5% and a Germination energy [1, 3] of 85.7%. For the same compound, the Germination rate [1, 3] was 94.0%, the “Germination energy, %” value (rice (Diamant variety); [4]) was 85.0% and the “Germination rate, %” value (rice (Diamant variety); [4]) was 92.0%. The Germination energy (rice (Diamant variety); rice, 1·10^−11% solution) was 84.0%, the Germination rate (rice (Diamant variety); rice, 1·10^−11% solution) was 90.3% and the Germination energy (rice (Diamant variety); [5]) was 74.7%. The Germination rate (rice (Diamant variety); [5]) was 80.3%, the Germination energy (rice (Diamant variety); [6]) was 76.7% and the Germination rate (rice (Diamant variety); [6]) was 82.8%. It also gave a Germination energy (rice (Diamant variety); [7]) of 78.3%, a Germination rate (rice (Diamant variety); [7]) of 84.0% and a Germination energy (rice (Diamant variety); [8]) of 80.0%. For the same compound, the Germination rate (rice (Diamant variety); [8]) was 86.3%, the Germination energy (rice (Diamant variety); [9]) was 82.3% and the Germination rate (rice (Diamant variety); [9]) was 88.0%. For the same compound, the Germination energy (rice (Diamant variety); [10]) was 84.0%, the Germination rate (rice (Diamant variety); [10]) was 90.3% and the Germination energy (rice (Diamant variety); [11]) was 79.0%. For the same compound, the Germination rate (rice (Diamant variety); [11]) was 85.3%, the “optimum concentration for treating corn seeds before sowing” value ([2]; corn) was 1·10^−10% and the “Length, root” value [2, 12] was 4.5 cm. For the same compound, the “Length, root, + % to control” value [2, 12] was −4%, the “Length, sprout” value [2, 12] was 2.4 cm and the “Length, sprout, + % to control” value [2, 12] was −14%. For the same compound, the “Mass, dry, root” value [2, 12] was 0.99 g/100 plantlings, the “Mass, dry, root, + % to control” value [2, 12] was −19% and the “Mass, dry, sprout” value [2, 12] was 0.69 g/100 plantlings. For the same compound, the “Mass, dry, sprout, + % to control” value [2, 12] was −4%, the “Mass, wet, root” value [2, 12] was 5.95 g/100 plantlings and the “Mass, wet, root, + % to control” value [2, 12] was −12%. The “Mass, wet, sprout” value [2, 12] was 4.34 g/100 plantlings, the “Mass, wet, sprout, + % to control” value [2, 12] was −5% and the “Length, root” value [2, 13] was 4.9 cm. For the same compound, the “Length, root, + % to control” value [2, 13] was 4%, the “Length, sprout” value [2, 13] was 2.6 cm and the “Length, sprout, + % to control” value [2, 13] was −7%. The “Mass, dry, root” value [2, 13] was 1.03 g/100 plantlings, the “Mass, dry, root, + % to control” value [2, 13] was −15.5% and the “Mass, dry, sprout” value [2, 13] was 0.77 g/100 plantlings. For the same compound, the “Mass, dry, sprout, + % to control” value [2, 13] was 7%, the “Mass, wet, root” value [2, 13] was 6.72 g/100 plantlings and the “Mass, wet, root, + % to control” value [2, 13] was −1%. For the same compound, the “Mass, wet, sprout” value [2, 13] was 4.62 g/100 plantlings, the “Mass, wet, sprout, + % to control” value [2, 13] was 1% and the “Length, root” value [2, 14] was 5.0 cm. The “Length, root, + % to control” value [2, 14] was 6%, the “Length, sprout” value [2, 14] was 2.8 cm and the “Length, sprout, + % to control” value [2, 14] was 0%. For the same compound, the “Mass, dry, root” value [2, 14] was 1.18 g/100 plantlings, the “Mass, dry, root, + % to control” value [2, 14] was −3% and the “Mass, dry, sprout” value [2, 14] was 0.86 g/100 plantlings. The “Mass, dry, sprout, + % to control” value [2, 14] was 19%, the “Mass, wet, root” value [2, 14] was 6.93 g/100 plantlings and the “Mass, wet, root, + % to control” value [2, 14] was 2%. The “Mass, wet, sprout” value [2, 14] was 4.74 g/100 plantlings, the “Mass, wet, sprout, + % to control” value [2, 14] was 4% and the “Length, root” value [2, 15] was 5.2 cm. For the same compound, the “Length, root, + % to control” value [2, 15] was 11%, the “Length, sprout” value [2, 15] was 3.0 cm and the “Length, sprout, + % to control” value [2, 15] was 7%. The “Mass, dry, root” value [2, 15] was 1.25 g/100 plantlings, the “Mass, dry, root, + % to control” value [2, 15] was 2% and the “Mass, dry, sprout” value [2, 15] was 0.69 g/100 plantlings. For the same compound, the “Mass, dry, sprout, + % to control” value [2, 15] was 26%, the “Mass, wet, root” value [2, 15] was 7.08 g/100 plantlings and the “Mass, wet, root, + % to control” value [2, 15] was 4%. For the same compound, the “Mass, wet, sprout” value [2, 15] was 4.91 g/100 plantlings, the “Mass, wet, sprout, + % to control” value [2, 15] was 7% and the “Length, root” value [2, 16] was 5.5 cm. For the same compound, the “Length, root, + % to control” value [2, 16] was 17%, the “Length, sprout” value [2, 16] was 3.1 cm and the “Length, sprout, + % to control” value [2, 16] was 11%. The “Mass, dry, root” value [2, 16] was 1.30 g/100 plantlings, the “Mass, dry, root, + % to control” value [2, 16] was 6.5% and the “Mass, dry, sprout” value [2, 16] was 1.12 g/100 plantlings. For the same compound, the “Mass, wet, root” value [2, 16] was 7.19 g/100 plantlings, the “Mass, wet, sprout” value [2, 16] was 5.35 g/100 plantlings and the “Mass, wet, sprout, + % to control” value [2, 16] was 17%. For the same compound, the “Length, root” value [2, 17] was 5.3 cm, the “Length, root, + % to control” value [2, 17] was 13% and the “Length, sprout” value [2, 17] was 2.9 cm. For the same compound, the “Length, sprout, + % to control” value [2, 17] was 3.5%, the “Mass, dry, root” value [2, 17] was 1.26 g/100 plantlings and the “Mass, dry, root, + % to control” value [2, 17] was 3%. The “Mass, dry, sprout” value [2, 17] was 0.92 g/100 plantlings, the “Mass, dry, sprout, + % to control” value [2, 17] was 28% and the “Mass, wet, root” value [2, 17] was 6.88 g/100 plantlings. The “Mass, wet, root, + % to control” value [2, 17] was 1%, the “Mass, wet, sprout” value [2, 17] was 4.99 g/100 plantlings and the “Mass, wet, sprout, + % to control” value [2, 17] was 9%. The “Length, root” value [2, 18] was 4.6 cm, the “Length, root, + % to control” value [2, 18] was −2% and the “Length, sprout” value [2, 18] was 2.6 cm. The “Length, sprout, + % to control” value [2, 18] was −7%, the “Mass, dry, root” value [2, 18] was 0.95 g/100 plantlings and the “Mass, dry, root, + % to control” value [2, 18] was −22%. For the same compound, the “Mass, dry, sprout” value [2, 18] was 0.80 g/100 plantlings, the “Mass, dry, sprout, + % to control” value [2, 18] was 11% and the “Mass, wet, root” value [2, 18] was 6.12 g/100 plantlings. The “Mass, wet, root, + % to control” value [2, 18] was −10%, the “Mass, wet, sprout” value [2, 18] was 4.37 g/100 plantlings and the “Mass, wet, sprout, + % to control” value [2, 18] was −4%. The “effectiveness on germinating power” value ([2]; corn, 1·10^−6% and 1·10^−12% solutions) was “ineffective”, the “Length, root, + % to control” value ([2]; corn, 1·10^−10% solution) was 17% and the “Length, sprout, + % to control” value ([2]; corn, 1·10^−10% solution) was 11%. The “Mass, dry, root, + % to control” value ([2]; corn, 1·10^−10% solution) was 6.5%, the “Mass, dry, sprout, + % to control” value ([2]; corn, 1·10^−10% solution) was 55.5% and the “Mass, wet, root, + % to control” value ([2]; corn, 1·10^−10% solution) was 6%. The “Mass, wet, sprout, + % to control” value ([2]; corn, 1·10^−10% solution) was 17%.
